Measurements: patent US20250179061A1 (SIRONAX LTD., priority 2022, published 2025)
Read-outs that look alike come from different tables or passages of the source.

Tested on: HT-29 cells
Test: HT-29 necroptosis cell viability assay (TNF-α/SMAC mimetic/zVAD-FMK, CellTiter-Glo)
Assay type: cell-based
Conditions: Homo sapiens
Method in brief: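 Necroptosis was triggered by TNF-α (10 ng/ml), SMAC mimetic (6 μM) and zVAD-FMK (10 μM) in serum-free medium during 20 h compound exposure (10 concentrations, threefold steps) of HT-29 cells. IC50 from duplicate dose-responses uses CellTiter-Glo ATP luminescence as viability read-out.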

[1] = HT-29 cells stimulated with TNF-α (10 ng/ml), SMAC mimetic (6 μM) and zVAD-FMK (10 μM), 20 hours, CellTiter-Glo ATP luminescence, geometric mean IC50 from 10 points, read-out: Activity
[2] = HT-29, HT-29 necroptosis cell viability, IC50 class symbols, read-out: Activity
[3] = HT-29, HT-29 necroptosis cell viability assay, class symbols for IC50, read-out: Activity
[4] = HT-29, HT-29 cells, necroptosis induced by TNF-α/SMAC mimetic/zVAD-FMK, CellTiter-Glo, read-out: Activity (IC50 class)

SMILES	IC50 [2] [nM]	IC50 [3] [nM]	other results
COC1(C#N)CN(c2nc(C)c(Oc3ccc(-n4ncn(Cc5c(F)cccc5F)c4=O)cc3)s2)C1 [Example 55, 1-(5-(4-(4-(2,6-difluorobenzyl)-5-oxo-4,5-dihydro-1H-1,2,4-triazol-1-yl)phenoxy)-4-methylthiazol-2-yl)-3-methoxyazetidine-3-carbonitrile]			IC50 [1]: < 100 nM
Cc1nc(C(N)=O)sc1Oc1ccc(-n2nc3n(c2=O)[C@H](c2cncc(F)c2)CC3)cc1F (single isomer, unassigned) [Example 700]			IC50 [1]: < 100 nM
N#CC12CC(Nc3nccc(Oc4ccc(-n5ncn(Cc6c(F)cccc6F)c5=O)cc4F)c3F)(C1)C2 [Example 246, 3-((4-(4-(4-(2,6-difluorobenzyl)-5-oxo-4,5-dihydro-1H-1,2,4-triazol-1-yl)-2-fluorophenoxy)-3-fluoropyridin-2-yl)amino)bicyclo[1.1.1]pentane-1-carbonitrile]	< 100		
CNC(=O)c1nc(C)c(Oc2ccc(-n3ncn(Cc4c(F)cccc4F)c3=O)cc2F)s1 [Example 609, 5-(4-(4-(2,6-difluorobenzyl)-5-oxo-4,5-dihydro-1H-1,2,4-triazol-1-yl)-2-fluorophenoxy)-N,4-dimethylthiazole-2-carboxamide]		< 100	
CC(C)(C)OC(=O)N1CCC12CN(c1cc(Oc3ccc(-n4ncn(Cc5c(F)cccc5F)c4=O)cc3)ccn1)C2 [Example 317, tert-butyl 6-(4-(4-(4-(2,6-difluorobenzyl)-5-oxo-4,5-dihydro-1H-1,2,4-triazol-1-yl)phenoxy)pyridin-2-yl)-1,6-diazaspiro[3.3]heptane-1-carboxylate]	1000 to 10000		
Cn1nc(C(N)=O)nc1Oc1ccc(-n2nc3n(c2=O)[C@H](c2ccccc2)CC3)cc1F (single isomer, unassigned) [Example 692]			IC50 [1]: < 100 nM
CC1(N)CN(c2cc(Oc3ccc(-n4ncn(Cc5c(F)cccc5F)c4=O)cc3F)c(Cl)cn2)C1 [Example 421, 2-(4-((2-(3-amino-3-methylazetidin-1-yl)-5-chloropyridin-4-yl)oxy)-3-fluorophenyl)-4-(2,6-difluorobenzyl)-2,4-dihydro-3H-1,2,4-triazol-3-one]	< 100		
O=c1n(Cc2c(F)cccc2F)cnn1-c1ccc(Oc2cncc(N3CC4(CCOCC4)C3)c2)cc1 [Example 285, 2-(4-((5-(7-oxa-2-azaspiro[3.5]nonan-2-yl)pyridin-3-yl)oxy)phenyl)-4-(2,6-difluorobenzyl)-2,4-dihydro-3H-1,2,4-triazol-3-one]	< 100		
Cc1ncn(Cc2ccc(-n3ncn(Cc4c(F)cccc4F)c3=O)cc2)c1I [Example 540, 4-(2,6-difluorobenzyl)-2-(4-((5-iodo-4-methyl-1H-imidazol-1-yl)methyl)phenyl)-2,4-dihydro-3H-1,2,4-triazol-3-one]		< 100	
Cc1cc(C(N)=O)n(C)c1Oc1ccc(-n2nc3n(c2=O)[C@H](c2ccccc2)CC3)cc1F (single isomer, unassigned) [Example 697]			IC50 [1]: < 100 nM
CC(C)(C)CNC(=O)c1cc(Oc2ccc(-n3ncn(Cc4c(F)cccc4F)c3=O)cc2)ccn1 [Example 660, 4-(4-(4-(2,6-difluorobenzyl)-5-oxo-4,5-dihydro-1H-1,2,4-triazol-1-yl)phenoxy)-N-neopentylpicolinamide]			IC50 [4]: 100 to 1000 nM
CC(C)(C)CC(=O)Nc1cc(Oc2ccc(-n3ncn(Cc4c(F)cccc4F)c3=O)cc2)ccn1 [Example 519, N-[4-[4-[4-[(2,6-difluorophenyl)methyl]-5-oxo-1,2,4-triazol-1-yl]phenoxy]-2-pyridyl]-3,3-dimethyl-butanamide]		100 to 1000	
O=c1n(Cc2c(F)cccc2F)cnn1-c1ccc(Oc2ccnc(N3CC4(CCO4)C3)c2)cc1 [Example 300, 4-[(2,6-difluorophenyl)methyl]-2-[4-[[2-(1-oxa-6-azaspiro[3.3]heptan-6-yl)-4-pyridyl]oxy]phenyl]-1,2,4-triazol-3-one]	100 to 1000		
Cc1nc(N2CC3(CCO3)C2)sc1Oc1ccc(-n2ncn(Cc3c(F)cccc3F)c2=O)cc1 [Example 457, 4-(2,6-difluorobenzyl)-2-(4-((4-methyl-2-(1-oxa-6-azaspiro[3.3]heptan-6-yl)thiazol-5-yl)oxy)phenyl)-2,4-dihydro-3H-1,2,4-triazol-3-one]	< 100		
CCOC1CN(c2cc(Oc3ccc(-n4ncn(Cc5c(F)cccc5F)c4=O)cc3F)c(Cl)cn2)C1 [Example 365, 2-(4-((5-chloro-2-(3-ethoxyazetidin-1-yl)pyridin-4-yl)oxy)-3-fluorophenyl)-4-(2,6-difluorobenzyl)-2,4-dihydro-3H-1,2,4-triazol-3-one]	< 100		
CCOC(=O)c1c(C)cn(Cc2ccc(-n3ncn(Cc4c(F)cccc4F)c3=O)cc2F)c1C [Example 208, 1-(4-(4-(2,6-difluorobenzyl)-5-oxo-4,5-dihydro-1H-1,2,4-triazol-1-yl)-2-fluorobenzyl)-2,4-dimethyl-1H-pyrrole-3-carboxylate]		< 100	

SMILES	IC50 [2] [nM]	IC50 [3] [nM]	other results
Cc1cc(N2CC(C)(C#N)C2)nn1Cc1ccc(-n2ncn(Cc3c(F)cccc3F)c2=O)cc1 [Example 541, 1-(1-(4-(4-(2,6-difluorobenzyl)-5-oxo-4,5-dihydro-1H-1,2,4-triazol-1-yl)benzyl)-5-methyl-1H-pyrazol-3-yl)-3-methylazetidine-3-carbonitrile]		< 100	
CCOC1CN(c2cc(Oc3ccc(-n4nc5n(c4=O)C(c4ccccc4)CC5)cc3)ccn2)C1 (stereo not shown) [Example 301, 2-[4-[[2-(3-ethoxyazetidin-1-yl)-4-pyridyl]oxy]phenyl]-5-phenyl-6,7-dihydro-5H-pyrrolo[2,1-c][1,2,4]triazol-3-one]	< 100		
N#Cc1cnc(Cl)cc1Oc1ccc(-n2ncn(Cc3c(F)cccc3F)c2=O)cc1F [Example 395, 6-chloro-4-(4-(4-(2,6-difluorobenzyl)-5-oxo-4,5-dihydro-1H-1,2,4-triazol-1-yl)-2-fluorophenoxy)nicotinonitrile]	1000 to 10000		
Cc1nc(C(=O)NC2CCOC2)sc1Oc1ccc(-n2nc3n(c2=O)[C@H](c2ccccc2)CC3)cc1F (single isomer, unassigned) [Example 18]			IC50 [1]: < 100 nM
Cc1nn(Cc2ccc(-n3ncn(Cc4c(F)cccc4F)c3=O)cc2)cc1C#N [Example 190, 1-(4-(4-(2,6-difluorobenzyl)-5-oxo-4,5-dihydro-1H-1,2,4-triazol-1-yl)benzyl)-3-methyl-1H-pyrazole-4-carbonitrile]		< 100	
O=C1NC2(CO1)CN(c1cc(Oc3ccc(-n4ncn(Cc5c(F)cccc5F)c4=O)cc3F)c(F)cn1)C2 [Example 656, 2-[4-[4-[4-[(2,6-difluorophenyl)methyl]-5-oxo-1,2,4-triazol-1-yl]-2-fluoro-phenoxy]-5-fluoro-2-pyridyl]-7-oxa-2,5-diazaspiro[3.4]octan-6-one]			IC50 [4]: < 100 nM
CCOC1(C)CN(c2cc(Oc3ccc(-n4ncn(Cc5c(F)cccc5F)c4=O)cc3Cl)c(Cl)cn2)C1 [Example 504, 2-(3-chloro-4-((5-chloro-2-(3-ethoxy-3-methylazetidin-1-yl)pyridin-4-yl)oxy)phenyl)-4-(2,6-difluorobenzyl)-2,4-dihydro-3H-1,2,4-triazol-3-one]		< 100	
CC1(C)CC(=O)N(c2cc(Oc3ccc(-n4ncn(Cc5c(F)cccc5F)c4=O)cc3)ccn2)C1 [Example 254, 4-(2,6-difluorobenzyl)-2-(4-((2-(4,4-dimethyl-2-oxopyrrolidin-1-yl)pyridin-4-yl)oxy)phenyl)-2,4-dihydro-3H-1,2,4-triazol-3-one]	100 to 1000		
Cc1nc(Br)sc1Oc1ncc(-n2ncn(Cc3c(F)cccc3F)c2=O)cc1F [Example 645, 2-(6-((2-bromo-4-methylthiazol-5-y1)oxy)-5-fluoropyridin-3-yl)-4-(2,6-difluorobenzyl)-2,4-dihydro-3H-1,2,4-triazol-3-one]			IC50 [4]: < 100 nM
COc1cc(S(=O)(=O)c2ccc(-n3nc4n(c3=O)C(c3ccccc3)CC4)cc2)ccn1 (stereo not shown) [Example 617, 2-(4-((2-methoxypyridin-4-yl)sulfonyl)phenyl)-5-phenyl-2,5,6,7-tetrahydro-3H-pyrrolo[2,1-c][1,2,4]triazol-3-one]		< 100	
Cc1nc(C(=O)NCCN2CCOCC2)sc1Oc1ccc(-n2ncn(Cc3c(F)cccc3F)c2=O)cc1F [Example 24, 5-(4-(4-(2,6-diflurobenzyl)-5-oxo-4,5-dihydro-1H-1,2,4-triazol-1-yl)-2-fluorophenoxy)-4-methyl-N-(2-morpholinoethyl)thiazole-2-carboxamide]			IC50 [1]: < 100 nM
Cc1nc(CO)c(Oc2ccc(-n3ncn(Cc4c(F)cccc4F)c3=O)cc2)s1 [Example 146]		100 to 1000	
COC1(C#N)CN(c2cc(Oc3ccc(-n4ncn(Cc5c(F)cccc5F)c4=O)cc3F)ccn2)C1 [Example 367, 1-(4-(4-(4-(2,6-difluorobenzyl)-5-oxo-4,5-dihydro-1H-1,2,4-triazol-1-yl)-2-fluorophenoxy)pyridin-2-yl)-3-methoxyazetidine-3-carbonitrile]	< 100		
Cc1nc(C(=O)N2CC(C)(N)C2)sc1Oc1ccc(-n2ncn(Cc3ccccc3F)c2=O)cc1F [Example 591, 2-(4-((2-(3-amino-3-methylazetidine-1-carbonyl)-4-methylthiazol-5-yl)oxy)-3-fluorophenyl)-4-(2-fluorobenzyl)-2,4-dihydro-3H-1,2,4-triazol-3-one]		< 100	
Cc1nc(C(N)=O)sc1OC1CCC(n2nc3n(c2=O)[C@H](c2ccccc2)CC3)CC1 (stereo partly drawn) [Example 635, (S)-4-methyl-5-((4-(3-oxo-5-phenyl-6,7-dihydro-3H-pyrrolo[2,1-c][1,2,4]triazol-2(5H)-yl)cyclohexyl)oxy)thiazole-2-carboxamide]			IC50 [4]: 1000 to 10000 nM
